{
  "source": "patent EP3248604A1",
  "about": "“AGENTS FOR MODULATION OF WNT-TCF SIGNALLING AND USES THEREOF” (UNIVERSITE DE GENEVE, priority 2016, dated 2017)",
  "format_in_all_cases": "cell-based, human",
  "key": {"[1]": {"system": "Epigenetic regulators", "assay": "RT-qPCR of epigenetic regulators in U251 cells", "conditions": "0.5 µM", "method": "(§1) RT-qPCR was performed as in Melotti et al. (2014, supra) using BioRad equipment and reagents. Cells cultured in nitro were treated with the desired concentration of drug in DMEM-F12 and reduced serum (2.5% FBS) for 16h, unless otherwise noted, and collected in Trizol (Sigma) before total RNA extraction and cDNA synthesis. Primers were as in Table 1. HPRT (gene encoding Hypoxanthine phosphoribosyltransferase 1) and βACTIN were used as housekeeping controls for normalization.\n(§2) The WNT-TCF-independent repressive activity of CAP2 on epigenetic regulators may be extrapolated to other cancer cells as it was also detected in HT29 and CC14 human colon cancer cells, in MeWo human melanoma cells as well as in U87 and U251 human glioma cells. In all these different human cancer cells, CAP2 (at 0.5 µM) modulated the expression of ZMYND8, SMARCAL1, TBLIXR1, SETD6 and TAF5Ls (Table 15)."}, "[2]": {"system": "WNT-TCF targets", "assay": "Epistatic rescue with TCF^VP16, DLD1", "conditions": "CAP2 5µM, 16h", "method": "Lentivectors expressing a TCF4^VP16 protein in a vector independently expressing GFP, or vector alone, plus reporter plasmids were transfected into cells. 72h after transfection cells were visually checked for expression of GFP. Independent batches of cells with >80% GFP expression were chosen for further experimentation and treated with or without compounds in DMEM-F12 (with 2.5% FBS) for 16h and collected in Trizol.\nIf the effects of CAP2 on WNT-TCF targets were specific, an activated form of TCF should rescue the repression since CAP2 is likely to act downstream of the APC destruction complex since it was found using an N'Δ form of βCATENIN that is APC insensitive. To activate this last step of canonical WNT signaling, a fusion between TCF and the potent transactivation domain of the viral VP16 protein, TCF^VP16 (Melotti et al., 2014, supra), was used to directly and positively regulate TCF targets. […] Rescue of LGR5, cMYC and ASCL2 repression by CAP2 (at 5µM) was also observed although there was variability between the cell types, similarly to the repression of CDKN1A (Table 8), although in all cases it reversed its enhancement by CAP2 treatment (Table 8)."}, "[3]": {"system": "Epigenetic regulators", "assay": "RT-qPCR of epigenetic regulators in U87 cells", "conditions": "0.5 µM", "method": "as §1, §2"}, "[4]": {"system": "WNT-TCF targets", "assay": "RT-qPCR gene expression in U87 glioblastoma cells", "conditions": "16h, batch 3, vs DMSO=1", "method": "as §1\nPrimary colon cells CC14, CC36 and mCC11, colon cancer cell lines DLD1, HT29, Ls174T, melanoma cell line MeWo, glioblastoma cell lines U87 and U251, and the lung cancer cell line H358 were cultured in DMEM-F12 with 10% FBS under standard in nitro conditions."}, "[5]": {"system": "Ls174T cells", "assay": "Clonal spheroid assay, Ls174T", "conditions": "Homo sapiens, LS174T, 16 h, read-out: IC50, number of stem cell-derived spheroids", "method": "Cells were treated with different concentrations of compounds for 16h in 2D adherent culture, washed, harvested and plated in suspension with serum-free DMEM-F12 media with B27 supplement (1:50 dilution) at 1 cell/well in 96-well format in triplicates. Plated cells were monitored to ensure the presence of single cells in each well and spheroids counted and photographed after 10 days for each round.\nTo directly test for a long-lasting repression of WNT-TCF targets by CAP2 clonogenic properties of cancer stem cells were tested. DLD1 and LS174T cells were first treated with CAP2 in 2D culture in vitro followed by removal of the drug, washing with PBS, and plating under non-adherent 3D conditions for clonal spheroid growth in the absence of the drug. After primary spheroid growth, the spheroids were dissociated and replated as single cells for secondary and subsequent clonogenic spheroid formation, also in the absence of the compound of the invention. As negative control DMSO-treatment was used."}, "[6]": {"system": "Chemokine/cytokine", "assay": "RT-qPCR gene expression in Ls174T cells, chemokine/cytokine genes", "parameters": "key: ratio normalized to DMSO control = 1", "conditions": "vs DMSO=1", "method": "as §1\nNine components of the three pathways (WNT-TCF, BMP/TGFβ and chemokine/cytokine), and the top 6 repressed epigenetic regulators (ZMYND8, EED, SMARCAL1, TBLIXR1, SETD6 and TAF5L) (Figure 12) were tested for their modulation by dnTCF and their timed response to CAP2 treatment. […] DnTCF also repressed the expression of BMP4, SMAD6, IL8, CXCL3 and CXCL5, but expression of IL33 was enhanced. […] BMP4 and ID2 were also repressed at 2 and 4h but SMAD6 was repressed only at 4h. CXCL3 was already repressed at 2h, IL8 was little affected and IL33 and CXCL5 were enhanced at 2h. At 4 h only CXCL3 was repressed and the other three cytokine/chemokine genes tested (IL8, IL33 and CXCL5) were neither enhanced nor repressed. […] All values are normalized ratios with DMSO-controls, which were equated to 1 Table 14"}, "[7]": {"system": "chromatin components and remodelers", "assay": "Microarray analysis of chromatin components and remodelers in Ls174T cells", "conditions": "CAP2-treated cells vs DMSO", "method": "Cells treated with compounds were collected in Trizol and RNA was harvested using standard protocols. Quality and quantity of RNA was checked using Nano Series (Agilent Technologies). Samples with a RNA Integrity Number (RIN) >9/10 were chosen and cDNA and cRNA samples were prepared using GeneChip IVT Express kit. Genechip hybridization was done using the same kit and applied to PrimeView U219 human array (Affymetrix) in the Genomic Platform at the Faculty of Medicine, University of Geneva.\nMining the transcriptome of CAP2-treated cells for CAP2-induced expression changes the public Reactome database for a chromatin organization cluster expanded to include related family members (94 probes) was used."}},
  "data": [
    {"compound": "CC1=C(C)C(=O)O[C@@H]([C@](C)(O)[C@]2(O)CC[C@@]3(O)[C@@H]4CC=C5CC=CC(=O)[C@]5(C)[C@H]4CC[C@]23C)C1", "note": "[CAP2]", "values": [
      {"measurement": "EED expression", "setting": "[1]", "value": 0.8},
      {"measurement": "SETD6 expression", "setting": "[1]", "value": 0.9},
      {"measurement": "SMARCAL1 expression", "setting": "[1]", "value": 0.5},
      {"measurement": "TAF5L expression", "setting": "[1]", "value": 1.1},
      {"measurement": "TBL1XR1 expression", "setting": "[1]", "value": 0.6},
      {"measurement": "ZMYND8 expression", "setting": "[1]", "value": 0.4},
      {"measurement": "ASCL2 expression, TCF^VP16+ CAP2 / control + CAP2", "setting": "[2]", "value": 1.5},
      {"measurement": "AXIN2 expression, TCF^VP16+ CAP2 / control + CAP2", "setting": "[2]", "value": 3.4},
      {"measurement": "CDKN1A expression, TCF^VP16+ CAP2 / control + CAP2", "setting": "[2]", "value": 0.4},
      {"measurement": "LGR5 expression, TCF^VP16+ CAP2 / control + CAP2", "setting": "[2]", "value": 1.4},
      {"measurement": "cMYC expression, TCF^VP16+ CAP2 / control + CAP2", "setting": "[2]", "value": 0.8},
      {"measurement": "EED expression", "setting": "[3]", "value": 0.2},
      {"measurement": "SETD6 expression", "setting": "[3]", "value": 0.3},
      {"measurement": "SMARCAL1 expression", "setting": "[3]", "value": 0.2},
      {"measurement": "TAF5L expression", "setting": "[3]", "value": 0.5},
      {"measurement": "TBL1XR1 expression", "setting": "[3]", "value": 0.2},
      {"measurement": "ZMYND8 expression", "setting": "[3]", "value": 0.1},
      {"measurement": "AXIN2 expression", "setting": "[4]; 1.25µM", "value": 0.7},
      {"measurement": "LGR5 expression", "setting": "[4]; 1.25µM", "value": 0.3},
      {"measurement": "AXIN2 expression", "setting": "[4]; 2.5µM", "value": 0.5},
      {"measurement": "LGR5 expression", "setting": "[4]; 2.5µM", "value": 0.3},
      {"measurement": "AXIN2 expression", "setting": "[4]; 5µM", "value": 0.5},
      {"measurement": "LGR5 expression", "setting": "[4]; 5µM", "value": 0.2},
      {"measurement": "AXIN2 expression", "setting": "[4]; 10µM", "value": 0.6},
      {"measurement": "LGR5 expression", "setting": "[4]; 10µM", "value": 0.2},
      {"measurement": "IC50", "setting": "[5]", "value": "< 1250", "unit": "nM"},
      {"measurement": "CXCL3 expression", "setting": "[6]; 5µM batch 3, 2h post-treatment", "value": 0.2},
      {"measurement": "CXCL5 expression", "setting": "[6]; 5µM batch 3, 2h post-treatment", "value": 1.3},
      {"measurement": "IL8 expression", "setting": "[6]; 5µM batch 3, 2h post-treatment", "value": 0.7},
      {"measurement": "IL33 expression", "setting": "[6]; 5µM batch 3, 2h post-treatment", "value": 1.4},
      {"measurement": "CXCL3 expression", "setting": "[6]; 5µM batch 3, 4h post-treatment", "value": 0.1},
      {"measurement": "CXCL5 expression", "setting": "[6]; 5µM batch 3, 4h post-treatment", "value": 1.1},
      {"measurement": "IL8 expression", "setting": "[6]; 5µM batch 3, 4h post-treatment", "value": 0.8},
      {"measurement": "IL33 expression", "setting": "[6]; 5µM batch 3, 4h post-treatment", "value": 1.1},
      {"measurement": "EED repression", "setting": "[7]", "value": 8, "unit": "fold"},
      {"measurement": "SMARCAL1 repression", "setting": "[7]", "value": 6, "unit": "fold"},
      {"measurement": "ZMYND8 repression", "setting": "[7]", "value": 28, "unit": "fold"}
    ]}
  ]
}
